≈ marks a conversion by molar mass, not a printed value. Calls of active or inactive are those of the source. The calls are words filed in the database; no cut-off is given here.
Key:
Acinetobacter baumannii [1] = assay: Antibacterial activity against Acinetobacter baumannii ATCC 19606 at 32 ug/ml measured after 18 hrs by resazurin dye based assay; format: functional, organism-based; conditions: ATCC 19606 = CIP 70.34 = JCM 6841
Klebsiella pneumoniae [2] = assay: Antibacterial activity against Klebsiella pneumoniae ATCC 700603 at 32 ug/ml measured after 18 hrs by resazurin dye based assay; format: functional, organism-based
L6 = assay: Cytotoxicity against rat L6 cells measured after 72 hrs by alamar blue assay; format: cell-based; conditions: L6, 72 h
[3] = system: Staphylococcus intermedius; assay: Antibacterial activity against Staphylococcus intermedius 1051997 measured after 18 hrs by broth dilution method; format: functional; conditions: Staphylococcus intermedius, 1051997, 18 h
Candida albicans [4] = assay: Antifungal activity against Candida albicans ATCC 90028 measured after 36 hrs; format: functional; conditions: ATCC 90028, 36 h
Candida albicans [5] = assay: Antifungal activity against Candida albicans ATCC 90028 at 32 ug/ml measured after 36 hrs; format: functional, organism-based
Klebsiella pneumoniae [6] = assay: Antibacterial activity against Klebsiella pneumoniae ATCC 700603 measured after 18 hrs by resazurin dye based assay; format: functional
Acinetobacter baumannii [7] = assay: Antibacterial activity against Acinetobacter baumannii ATCC 19606 measured after 18 hrs by resazurin dye based assay; format: functional
Pseudomonas aeruginosa [8] = assay: Antibacterial activity against Pseudomonas aeruginosa ATCC 27853 measured after 18 hrs by broth dilution method; format: functional
Pseudomonas aeruginosa [9] = assay: Potentiation of doxycycline-induced antibacterial activity against Pseudomonas aeruginosa ATCC 27853 assessed as concentration required to restore 2 ug/ml doxycycline activity measured after 18 hrs; format: functional
[10] = Cytotoxicity against HEK293 cells measured after 20 hrs by resazurin dye based fluorescence assay; format: cell-based, Homo sapiens; conditions: human, HEK293 cells
Cryptococcus neoformans [11] = assay: Antifungal activity against Cryptococcus neoformans ATCC 208821 at 32 ug/ml measured after 36 hrs by resazurin dye based assay; format: functional, organism-based
Escherichia coli = assay: Antibacterial activity against Escherichia coli ATCC 25922 measured after 18 hrs by broth dilution method; format: functional
Staphylococcus aureus = assay: Antibacterial activity against Staphylococcus aureus ATCC 25923 measured after 18 hrs by broth dilution method; format: functional; conditions: ATCC 25923, 18 h
Cryptococcus neoformans [12] = assay: Antifungal activity against Cryptococcus neoformans ATCC 208821 measured after 36 hrs by resazurin dye based assay; format: functional; conditions: ATCC 208821, 36 h
Erythrocyte = assay: Hemolytic activity against human RBC incubated for 10 mins under shaking condition measured after 1 hr; format: ADME, cell-based
[13] = Klebsiella pneumoniae, 700603, 18 h
[14] = ATCC 19606 = CIP 70.34 = JCM 6841, 18 h

Row | Compound | Activity (Acinetobacter baumannii [1]) | Activity (Klebsiella pneumoniae [2]) | IC50 (L6) [µM] | MIC [3] [µM] | MIC (Candida albicans [4]) | Activity (Candida albicans [5]) | MIC (Klebsiella pneumoniae [6]; [13]) [µM] | MIC (Acinetobacter baumannii [7]; [14]) [µM] | MIC (Pseudomonas aeruginosa [8]; ATCC 27853, 18 h) [µM] | Activity (Pseudomonas aeruginosa [9]) [µM] | CC50 at 20 h [10] [µM] | Activity (Cryptococcus neoformans [11]) | MIC (Escherichia coli; ATCC 25922, 18 h) [µM] | MIC (Staphylococcus aureus) [µM] | MIC (Cryptococcus neoformans [12]) | MIC (Klebsiella pneumoniae [6]) [µg/mL] | MIC (Acinetobacter baumannii [7]; ATCC 19606 = CIP 70.34 = JCM 6841) [µg/mL] | MIC (Pseudomonas aeruginosa [8]) [µM] | MIC (Escherichia coli) [µM] | HC10 (Erythrocyte)
1 | CN(C)CCNC(=O)C(=O)c1c[nH]c2cc(Br)ccc12 | inactive | inactive | 99.5 | 12.5 (≈ 4.23 µg/mL) | > 95 µM | inactive | > 95 | > 95 | > 200 | >200 | > 95 | inactive | > 200 | > 200 | > 95 µM | – | – | – | – | –
2 | O=C(NCCCOCCOCCOCCCNC(=O)C(=O)c1c[nH]c2cc(Br)ccc12)C(=O)c1c[nH]c2cc(Br)ccc12 | inactive | inactive | 75.4 | 12.5 (≈ 9.01 µg/mL) | > 44 µM | inactive | > 44 | > 44 | > 200 | >200 | > 44 | inactive | > 200 | > 200 | > 44 µM | – | – | – | – | –
3 | CN[C@@H]1[C@H](O[C@H]2[C@H](O[C@H]3[C@H](O)[C@@H](O)[C@H](N=C(N)N)[C@@H](O)[C@@H]3N=C(N)N)O[C@@H](C)[C@]2(O)C=O)O[C@@H](CO)[C@H](O)[C@H]1O [STREPTOMYCIN] | – | – | – | 10.7 (≈ 6.22 µg/mL) | – | – | – | – | 21.5 (≈ 12.5 µg/mL) | – | – | – | 21.5 (≈ 12.5 µg/mL) | 21.5 (≈ 12.5 µg/mL) | – | – | – | – | – | –
4 | COLISTIN | – | – | – | – | – | – | – | – | – | – | – | – | – | – | – | 0.25 | 0.25 | 2 | 1 | –
5 | CC[C@H](C)[C@H](NC(=O)CN)C(=O)NCC(=O)N[C@@H](C)C(=O)N[C@H](C(=O)N[C@@H](CC(C)C)C(=O)N[C@@H](CCCCN)C(=O)N[C@H](C(=O)N[C@@H](CC(C)C)C(=O)N[C@H](C(=O)N[C@H](C(=O)NCC(=O)N[C@@H](CC(C)C)C(=O)N1CCC[C@H]1C(=O)N[C@@H](C)C(=O)N[C@@H](CC(C)C)C(=O)N[C@H](C(=O)N[C@@H](CO)C(=O)N[C@@H](Cc1c[nH]c2ccccc12)C(=O)N[C@H](C(=O)N[C@@H](CCCCN)C(=O)N[C@@H](CCCNC(=N)N)C(=O)N[C@@H](CCCCN)C(=O)N[C@@H](CCCNC(=N)N)C(=O)N[C@@H](CCC(N)=O)C(=O)N[C@@H](CCC(N)=O)C(N)=O)[C@@H](C)CC)[C@@H](C)CC)[C@@H](C)O)[C@@H](C)O)C(C)C)C(C)C [MELITTIN] | – | – | – | – | – | – | – | – | – | – | – | – | – | – | – | – | – | – | – | 2.7 µg/mL
6 | O=C(NCCCNCCCCCCCCCCCCNCCCNC(=O)C(=O)c1c[nH]c2cc(Br)ccc12)C(=O)c1c[nH]c2cc(Br)ccc12.O=C(O)C(F)(F)F.O=C(O)C(F)(F)F | inactive | inactive | 1.6 | – | 7.67 µM | – | > 32 | > 32 | > 200 | >200 | 9.72 | – | > 200 | > 200 | 7.67 µM | – | – | – | – | 2.18 µM
7 | O=C(NCCCNCCCCCCNCCCNC(=O)C(=O)c1c[nH]c2cc(Br)ccc12)C(=O)c1c[nH]c2cc(Br)ccc12.O=C(O)C(F)(F)F.O=C(O)C(F)(F)F | inactive | inactive | 5.7 | – | 8.35 µM | – | > 33.4 | > 33.4 | > 200 | 6.52 | 17.1 | – | 52.2 | 6.5 | 33.4 µM | – | – | – | – | 18 µM
8 | O=C(NCCCNCCCCCCCCCCNCCCNC(=O)C(=O)c1c[nH]c2cc(Br)ccc12)C(=O)c1c[nH]c2cc(Br)ccc12.O=C(O)C(F)(F)F.O=C(O)C(F)(F)F | – | – | 12.4 | – | 1.97 µM | – | 31.5 | 31.5 | 24.6 | 6.16 | 6.03 | – | 24.6 | 12.3 | < 0.25 µM | – | – | – | – | 7.88 µM
9 | OC(Cn1cncn1)(Cn1cncn1)c1ccc(F)cc1F [FLUCONAZOLE] | – | – | – | – | 0.125 µg/mL | – | – | – | – | – | – | – | – | – | 8 µg/mL | – | – | – | – | –

Reference: ChEMBL document CHEMBL4339208, “6-Bromoindolglyoxylamido derivatives as antimicrobial agents and antibiotic enhancers” (Bioorg Med Chem, 2019)
